Measured values taken from patent US20260041744A1, “Methods for Treating Pompe Disease” (Amicus Therapeutics, Inc., priority 2022, published 2026).
Entries after “also recorded” stand apart in the source; their conditions may differ.

Key:
Pompe disease patients = experiment: Cross-study comparison of long-term effects on 6MWD and FVC (Example 12); format: in vivo, human; settings: ERT-experienced patients
Text: FIG. 53A-FIG. 53B show the 6-minute walk test (6MWT) percentage predicted during treatment with alglucosidase alfa. […] The data from year 2 onward show the decline expected in ERT-experienced patients remaining on alglucosidase alfa.

[1] = tested on: adults with Pompe disease; experiment: Study ATB200-02: manual muscle test (MMT lower extremity, upper body, total); format: in vivo, human; settings: for MMT total score (upper body) change from baseline, mean: Cohort 2 (non-ambulatory ERT-experienced)
Text: Results for lower extremity MMT are shown in Table 25 and FIGS. 48A and 48B.

[2] = tested on: adults with Pompe disease; experiment: Study ATB200-02: sitting % predicted FVC; settings: for FVC change from baseline, mean: Cohort 2 (non-ambulatory ERT-experienced)
Procedure: Four cohorts of patients with Pompe disease were enrolled in the ATB200-02 study: • Cohort 1: ERT-experienced, aged 18-65 years, with 2-6 years prior ERT with 20 mg/kg alglucosidase alfa every 2 weeks (n=11) • Cohort 2: Non-ambulatory ERT-experienced, aged 18-65 years, with ≥2 years prior ERT with 20 mg/kg alglucosidase alfa every 2 weeks (n=6)· • Cohort 3: ERT-naïve, aged 18-65 years (n=6). • Cohort 4: ERT-experienced, aged 18-75 years, with ≥7 years prior ERT with 20 mg/kg alglucosidase alfa every 2 weeks (n=6)
The change from baseline (CFBL) in 6MWD, % predicted sitting FVC, manual muscle test (MMT) and biomarkers—urine glucose tetrasaccharide (Hex4) and serum creatine kinase (CK)—were assessed at regular intervals. Data with up to 36 months of follow-up in ERT-experienced and ERT-naïve patients is provided herein. […] Due to the staggered timing of patient enrollment, the number of patients with data currently available decreases at later time-points in this ongoing study.

[3] = tested on: adults with Pompe disease; experiment: Study ATB200-02: SGIC and PGIC; format: in vivo, human; settings: 48 months follow-up
[4] = Ambulatory ERT-experienced, 12 months
[5] = Ambulatory ERT-experienced, 24 months
[6] = Ambulatory ERT-experienced, 36 months
[7] = Ambulatory ERT-experienced, 48 months
[8] = Ambulatory ERT-naïve, 12 months
[9] = Ambulatory ERT-naïve, 24 months
[10] = Ambulatory ERT-naïve, 36 months
[11] = Ambulatory ERT-naïve, 48 months
[12] = Cohort 1 + Cohort 3 + Cohort 4, Month 12
[13] = Cohort 1 + Cohort 3 + Cohort 4, Month 24
[14] = Cohort 1 + Cohort 3 + Cohort 4, Month 36
[15] = Cohort 1 + Cohort 3 + Cohort 4, Month 48
[16] = Cohort 1 + Cohort 4 (ERT-experienced), Month 36
[17] = Non-ambulatory ERT-experienced, 12 months
[18] = Non-ambulatory ERT-experienced, 24 months
[19] = Non-ambulatory ERT-experienced, 36 months
[20] = Cohort 1, ambulatory ERT-experienced, N = 7
[21] = Cohort 2, non-ambulatory ERT-experienced, N = 5
[22] = Cohort 3, ambulatory ERT-naïve, N = 6
[23] = Cohort 4, ambulatory ERT-experienced, N = 6

ATB200/miglustat: two-component therapy: cipaglucosidase alfa (ATB200) administered in conjunction with miglustat (AT2221), a stabilizer of cipaglucosidase alfa
long-term motor function by 6MWD after switching from alglucosidase alfa (Pompe disease patients): progressive gains in motor function as assessed by 6MWD
long-term pulmonary function by FVC after switching from alglucosidase alfa (Pompe disease patients): stability in pulmonary function as assessed by FVC
muscle strength by MMTs and QMTs ([1]; 48 months): stable or improved muscle strength in the lower and upper extremities and proximal muscle groups
Lower body MMT score, CFBL mean [1, 4]: 3.1
Total MMT score, CFBL mean [1, 4]: 4.3
Upper body MMT score, CFBL mean [1, 4]: 1.3
Lower body MMT score, CFBL mean [1, 5]: 2.1
Total MMT score, CFBL mean [1, 5]: 2.5
Upper body MMT score, CFBL mean [1, 5]: 0.5
Lower body MMT score, CFBL mean [1, 6]: 2.5
Total MMT score, CFBL mean [1, 6]: 3.6
Upper body MMT score, CFBL mean [1, 6]: 0.8
Lower body MMT score, CFBL mean [1, 7]: 3.5
Total MMT score, CFBL mean [1, 7]: 4.0
Upper body MMT score, CFBL mean [1, 7]: 0.5
Lower body MMT score, CFBL mean [1, 8]: 2.8
Total MMT score, CFBL mean [1, 8]: 2.4
Upper body MMT score, CFBL mean [1, 8]: 0.0
Lower body MMT score, CFBL mean [1, 9]: 3.0
Total MMT score, CFBL mean [1, 9]: 2.0
Upper body MMT score, CFBL mean [1, 9]: −1.5
Lower body MMT score, CFBL mean [1, 10]: (3.3
Total MMT score, CFBL mean [1, 10]: 3.5
Upper body MMT score, CFBL mean [1, 10]: 1.0
Lower body MMT score, CFBL mean [1, 11]: (1.0)
Total MMT score, CFBL mean [1, 11]: −1.3
Upper body MMT score, CFBL mean [1, 11]: −1.4
MMT (total score) CFB, mean ([1]; Cohort 1 + Cohort 3 + Cohort 4, 24-mo): 2.4
MMT (total score) CFB, mean ([1]; Cohort 1 + Cohort 3 + Cohort 4, 48-mo): 2.3
MMT lower extremity score change from baseline, mean [1, 12]: 3.0
MMT lower extremity score change from baseline, median [1, 12]: 3.0
MMT lower extremity score change from baseline, mean [1, 13]: 2.3
MMT lower extremity score change from baseline, median [1, 13]: 2.0
MMT lower extremity score change from baseline, mean [1, 14]: 2.7
MMT lower extremity score change from baseline, median [1, 14]: 2.0
MMT lower extremity score change from baseline, mean [1, 15]: 2.7
MMT lower extremity score change from baseline, median [1, 15]: 3.0
MMT (total score) CFB, mean ([1]; Cohort 1 + Cohort 4 (ERT-experienced), 24-mo): 2.5
MMT (total score) CFB, mean ([1]; Cohort 1 + Cohort 4 (ERT-experienced), 48-mo): 4.0
MMT lower extremity score change from baseline, mean ([1]; Cohort 1 + Cohort 4 (ERT-experienced), Month 12): 3.1 pts
MMT lower extremity score change from baseline, mean ([1]; Cohort 1 + Cohort 4 (ERT-experienced), Month 24): 2.1 pts
MMT lower extremity score change from baseline, mean [1, 16]: 2.5 pts
MMT lower extremity score change from baseline, mean ([1]; Cohort 1 + Cohort 4 (ERT-experienced), Month 48): 3.5 pts
MMT lower extremity score change from baseline, median ([1]; Cohort 1 + Cohort 4, Month 12): 2.0
MMT lower extremity score change from baseline, median ([1]; Cohort 1 + Cohort 4, Month 24): 2.0
MMT lower extremity score change from baseline, median ([1]; Cohort 1 + Cohort 4, Month 36): 1.5
MMT lower extremity score change from baseline, median ([1]; Cohort 1 + Cohort 4, Month 48): 3.0
MMT total score (upper body) change from baseline, mean ([1]; month 12): +1.3 pts
MMT total score (upper body) change from baseline, mean ([1]; month 24): +2.0 pts
MMT total score (upper body) change from baseline, mean ([1]; month 36): −0.8 pts
MMT (total score) CFB, mean ([1]; Cohort 3 (ERT-naïve), 24-mo): 2.0
MMT (total score) CFB, mean ([1]; Cohort 3 (ERT-naïve), 48-mo): −1.3
MMT lower extremity score change from baseline, mean ([1]; Cohort 3 (ERT-naïve), Month 12): 2.8 pts
MMT lower extremity score change from baseline, mean ([1]; Cohort 3 (ERT-naïve), Month 24): 3.0 pts
MMT lower extremity score change from baseline, mean ([1]; Cohort 3 (ERT-naïve), Month 36): 3.3 pts
MMT lower extremity score change from baseline, mean ([1]; Cohort 3 (ERT-naïve), Month 48): 1.0 pts
MMT lower extremity score change from baseline, median ([1]; Cohort 3, Month 12): 4.0
MMT lower extremity score change from baseline, median ([1]; Cohort 3, Month 24): 3.0
MMT lower extremity score change from baseline, median ([1]; Cohort 3, Month 36): 3.5
MMT lower extremity score change from baseline, median ([1]; Cohort 3, Month 48): 2.0
patients whose MMT lower extremity score improved numerically from baseline (n/N) ([1]; ERT-experienced ambulatory, 12 months): 14/15
patients whose MMT lower extremity score improved numerically from baseline (n/N) ([1]; ERT-experienced ambulatory, 24 months): 11/13
patients whose MMT lower extremity score improved numerically from baseline (n/N) ([1]; ERT-experienced ambulatory, 36 months): 10/10
patients whose MMT lower extremity score improved numerically from baseline (n/N) ([1]; ERT-experienced ambulatory, 48 months): 8/8
patients whose MMT lower extremity score improved numerically from baseline (n/N) ([1]; ERT-naïve, 12 months): 4/5
patients whose MMT lower extremity score improved numerically from baseline (n/N) ([1]; ERT-naïve, 24 months): 4/5
patients whose MMT lower extremity score improved numerically from baseline (n/N) ([1]; ERT-naïve, 36 months): 4/4
patients whose MMT lower extremity score improved numerically from baseline (n/N) ([1]; ERT-naïve, 48 months): 3/4
Total MMT score, CFBL mean [1, 17]: 1.3
Upper body MMT score, CFBL mean [1, 17]: 1.3
Total MMT score, CFBL mean [1, 18]: 2.0
Upper body MMT score, CFBL mean [1, 18]: 2.0
Total MMT score, CFBL mean [1, 19]: −0.8
Upper body MMT score, CFBL mean [1, 19]: −0.8
Percent predicted sitting FVC, CFBL mean [2, 4]: −1.2
Percent predicted sitting FVC, CFBL mean [2, 5]: 1.0
Percent predicted sitting FVC, CFBL mean [2, 6]: −0.3
Percent predicted sitting FVC, CFBL mean [2, 7]: 1.0
Percent predicted sitting FVC, CFBL mean [2, 8]: 3.2
Percent predicted sitting FVC, CFBL mean [2, 9]: 4.7
Percent predicted sitting FVC, CFBL mean [2, 10]: 6.2
Percent predicted sitting FVC, CFBL mean [2, 11]: 8.3
sitting % predicted FVC change from baseline, mean [2, 12]: 0.0%
sitting % predicted FVC change from baseline, median [2, 12]: −0.5%
sitting % predicted FVC change from baseline, mean [2, 13]: 2.2%
sitting % predicted FVC change from baseline, median [2, 13]: 2.0%
sitting % predicted FVC change from baseline, mean [2, 14]: 1.9%
sitting % predicted FVC change from baseline, median [2, 14]: 2.0%
sitting % predicted FVC change from baseline, mean [2, 15]: 3.9%
sitting % predicted FVC change from baseline, median [2, 15]: 4.5%
sitting % predicted FVC change from baseline, mean ([2]; Cohort 1 + Cohort 4 (ERT-experienced), Month 12, listed as cipaglucosidase alfa/miglustat): −1.2%
sitting % predicted FVC change from baseline, mean [2, 16]: −0.3%
sitting % predicted FVC change from baseline, median ([2]; Cohort 1 + Cohort 4, Month 12): −1.0%
sitting % predicted FVC change from baseline, median ([2]; Cohort 1 + Cohort 4, Month 24): 1.0%
sitting % predicted FVC change from baseline, median ([2]; Cohort 1 + Cohort 4, Month 36): −1.5%
sitting % predicted FVC change from baseline, median ([2]; Cohort 1 + Cohort 4, Month 48): 3.5%
FVC change from baseline, mean ([2]; month 12): +2.5%
FVC change from baseline, mean ([2]; month 24): +2.0%
FVC change from baseline, mean ([2]; month 36): −2.0%
FVC change from baseline, mean ([2]; month 48): −1.0%
sitting % predicted FVC change from baseline, mean ([2]; Cohort 3 (ERT-naïve), Month 12): 3.2%
sitting % predicted FVC change from baseline, mean ([2]; Cohort 3 (ERT-naïve), Month 24): 4.7%
sitting % predicted FVC change from baseline, mean ([2]; Cohort 3 (ERT-naïve), Month 36): 6.2%
sitting % predicted FVC change from baseline, mean ([2]; Cohort 3 (ERT-naïve), Month 48): 8.3%
sitting % predicted FVC change from baseline, median ([2]; Cohort 3, Month 12): 4.5%
sitting % predicted FVC change from baseline, median ([2]; Cohort 3, Month 24): 4.0%
sitting % predicted FVC change from baseline, median ([2]; Cohort 3, Month 36): 5.0%
sitting % predicted FVC change from baseline, median ([2]; Cohort 3, Month 48): 9.5%
patients whose FVC improved (>3%) or remained stable (±3%) from baseline (n/N) ([2]; ERT-experienced, 12 months): 9/16
patients whose FVC improved (>3%) or remained stable (±3%) from baseline (n/N) ([2]; ERT-experienced, 24 months): 11/13
patients whose FVC improved (>3%) or remained stable (±3%) from baseline (n/N) ([2]; ERT-experienced, 36 months): 8/10
patients whose FVC improved (>3%) or remained stable (±3%) from baseline (n/N) ([2]; ERT-experienced, 48 months): 4/6
patients with improvement (CFBL >3% points) in % predicted sitting FVC ([2]; ERT-experienced, Month 48): 66.7%
patients whose FVC improved (>3%) or remained stable (±3%) from baseline (n/N) ([2]; ERT-naïve, 12 months): 5/6
patients whose FVC improved (>3%) or remained stable (±3%) from baseline (n/N) ([2]; ERT-naïve, 24 months): 6/6
patients whose FVC improved (>3%) or remained stable (±3%) from baseline (n/N) ([2]; ERT-naïve, 36 months): 5/5
patients whose FVC improved (>3%) or remained stable (±3%) from baseline (n/N) ([2]; ERT-naïve, 48 months): 4/4
patients with improvement (CFBL >3% points) in % predicted sitting FVC ([2]; ERT-naïve, Month 48): 75%
Percent predicted sitting FVC, CFBL mean [2, 17]: 2.5
Percent predicted sitting FVC, CFBL mean [2, 18]: 2.0
Percent predicted sitting FVC, CFBL mean [2, 19]: −2.0
Percent predicted sitting FVC, CFBL mean ([2]; Non-ambulatory ERT-experienced, 48 months): −1.0
% predicted FVC outcome (words; cohort in the words) ([2]; up to 48 months, listed as cipaglucosidase alfa/miglustat): stable or improved % predicted FVC for ERT-experienced subjects (Cohorts 1 and 4), ERT-naïve subjects (Cohort 3), and overall (Cohorts 1, 3, and 4); also recorded: For Cohort 2 (non-ambulatory subjects), sitting % predicted FVC was stable in 2 subjects with available data out to 36 months
PGIC: Declined, % [3, 20]: (0) %
PGIC: Improved, % [3, 20]: (57.1) %
PGIC: No change, % [3, 20]: (42.9) %
SGIC; Overall physical wellbeing: Declined, % [3, 20]: (0) %
SGIC; Overall physical wellbeing: Improved, % [3, 20]: (85.7) %
SGIC; Overall physical wellbeing: No change, % [3, 20]: (14.3) %
PGIC: Declined, % [3, 21]: (0) %
PGIC: Improved, % [3, 21]: (60.0) %
PGIC: No change, % [3, 21]: (40.0) %
SGIC; Overall physical wellbeing: Declined, % [3, 21]: (0) %
SGIC; Overall physical wellbeing: Improved, % [3, 21]: (60.0) %
SGIC; Overall physical wellbeing: No change, % [3, 21]: (40.0) %
PGIC: Declined, % [3, 22]: (0) %
PGIC: Improved, % [3, 22]: (100.0) %
PGIC: No change, % [3, 22]: (0) %
SGIC; Overall physical wellbeing: Declined, % [3, 22]: (0) %
SGIC; Overall physical wellbeing: Improved, % [3, 22]: (83.3) %
SGIC; Overall physical wellbeing: No change, % [3, 22]: (16.7) %
PGIC: Declined, % [3, 23]: (0) %
PGIC: Improved, % [3, 23]: (33.3) %
PGIC: No change, % [3, 23]: (66.7) %
SGIC; Overall physical wellbeing: Declined, % [3, 23]: (16.7) %
SGIC; Overall physical wellbeing: Improved, % [3, 23]: (66.7) %
SGIC; Overall physical wellbeing: No change, % [3, 23]: (16.7) %
